4 compounds from patent publication US10624910B2, “Thrombin-like enzyme for reducing a side effect of an anticancer drug” (priority 2007, dated 2020) can be followed below.

Marks after values point to notes of the source that are not given here.

Type in all cases: in vivo
The test system of series [1] is C57BL/6 male mice inoculated with B16-BL6 murine malignant melanoma cells. The series is described as follows: Reducing effect of batroxobin on cardiotoxicity caused by adriamycin (H&E histopathology of left ventricular myocardial tissue). The conditions noted are these: batroxobin 20 BU/kg i.p. once a day and/or adriamycin 3 mg/kg i.p. once interval of 2 days; after 20 days. The text has this:
(§1) The thrombin-like enzyme, batroxobin (hereinafter referred to as DF-521) was used, which is manufactured by Beijing Tobishi Pharmaceutical Co., Ltd. (Beijing, China) with a trade name of Dong Ling Di Fu.
The anticancer drug, adriamycin (hereinafter referred to as ADM) was used, which is manufactured by Shenzhen Main Luck Pharmaceuticals Inc.
The laboratory animals, C57BL/6 male mice (weight: 16-18 g) were divided into 4 groups: 10 mice in the control group, 7 mice in the batroxobin group, 7 mice in the adriamycin group, and 7 mice in the adriamycin+batroxobin group. Mice from each group were inoculated with a dorsal right lateral subcutaneous injection of 3×10^6 B16-BL6 murine malignant melanoma cells in 0.3 ml of tumor cell suspension. After one day of tumor cell inoculation, the control group was given an intraperitoneal injuction of physiological saline once a day; the batroxobin group was given an intraperitoneal injection of batroxobin (20 BU/kg) once a day; the adriamycin group was given an intraperitoneal injection of adriamycin (3 mg/kg) once interval of 2 days; the adriamycin+batroxobin group was given an intraperitoneal injection of adriamycin (3 mg/kg) once interval of 2 days and an intraperitoneal injection of 20 BU/kg batroxobin once a day after administration of adriamycin. […]

The next series concerns C57BL/6 Mice. The series is described as follows: Reducing effect of batroxobin on bone marrow suppression caused by adriamycin. The settings on record: ADM 3 mg/kg i.p. (+ batroxobin 30 BU/kg i.p.) once every other day; after 9th administration.
Excerpt: as §1
The anticancer drug, adriamycin (hereinafter referred to as ADM) was used, which is manufactured by Hualian Pharmaceutical Factory of Shanghai Pharmaceutical Group Co., Ltd.
The laboratory animals, C57BL/6 Mice (weight: 19-22 g) were divided into three groups: control group, adriamycin group (ADM group), and adriamycin+batroxobin (ADM+DF-521 group), with 5-10 mice (n=5 or 10) in one group. The control group was given physiological saline once every other day. The adriamycin group was given an intraperitoneal dose of 3 mg/kg of adriamycin once every other day. The adriamycin+batroxobin group was given an intraperitoneal doses of 3 mg/kg of adriamycin and 30 BU/kg of batroxobin simultaneously, once every other day. After the 9th administration, the experiment was terminated, and the blood was collected from the femoral artery under ether anesthesia using the EDTA anticoagulant. Then, the WBC, RBC counts and Hb value were measured.
Furthermore, the bone marrow nuclear cell (BMNC) count per femur of a mouse was measured with the following procedure. The bone marrow was sampled from 2 femora of a mouse, bone marrow was flushed with the 2 ml physiological saline, and made the bone marrow cell suspension. Twenty of marrow cell suspension was put into 380 μl of 3% acetic acid solution. After the red blood cells were destroyed, the hemocytometer was used for counting the BMNC count under the microscope. Then the BMNC count per femur was calculated.
The above-mentioned BMNC, RBC, WBC counts and Hb value were used as an evaluation index for bone marrow suppression caused by adriamycin.

In series [2] the test system is male C57BL/6 mice. In words: Reducing effect of batroxobin on lethal toxicity caused by adriamycin. The settings on record: ADM 3 mg/kg i.p. (+ batroxobin 30 BU/kg i.p.) once every other day, 18 times; 41th day after first dose.
Excerpt: as §1
The anticancer drug, adriamycin (hereinafter referred to as ADM) was used, which is manufactured by Hualian Pharmaceutical Factory of Shanghai Pharmaceutical (Group) Co., Ltd.
The laboratory animals, male C57BL/6 mice (weight: 19-22 g) were divided into three groups: control group, adriamycin group (ADM group), and adriamycin+batroxobin group (ADM+DF-521 group), with 10 mice in each group. The control group was administered with physiological saline.
The adriamycin group was given an intraperitoneal dose (3 mg/kg) of adriamycin once every other day. The adriamycin+batroxobin group was given a simultaneous dosage of 3 mg/kg of adriamycin and 30 BU/kg of batroxobin intraperitoneally, once every other day. The drug administration was performed in total of 18 times. The experiment was terminated on the 41th day after the first dose administered. The number of deaths was totaled, and the survival rate was calculated from mortality rate.

Series [3] has as its system male C57BL/6 mice. The series is described as follows: Reducing effect of batroxobin on bone marrow suppression caused by cyclophosphamide. The conditions noted are these: CPA 100 mg/kg i.p. (+ batroxobin 30 BU/kg i.p.) once every other day; after fourth administration (7 days).
Excerpt: as §1
The anticancer chug, cyclophosphamide (hereinafter referred to as CPA) was used, which is manufactured by Shanxi Powerdone Pharmaceutical Co., Ltd.
The laboratory animals, male C57BL/6 mice (weight: […] were divided into three groups: control group, cyclophosphamide group (CPA group), and cyclophosphamide+batroxobin group (CPA+DF-521 group), with five mice in one group. The control group was given physiological saline once every other day. The cyclophosphamide group was given an intraperitoneal dose of 100 mg/kg of cyclophosphamide once every other day. The cyclophosphamide+batroxobin group was given an intraperitoneal dose of 100 mg/kg of cyclophosphamide and 30 BU/kg of batroxobin simultaneously, once every other day. After the fourth administration (7 days after the first administration), blood was collected from the femoral artery under ether anesthesia using the EDTA anticoagulant, and the white blood cell count (WBC), red blood cell count (RBC), hemoglobin value (Hb), and platelet count (Plt) was measured.
The bone marrow nuclear cell count (BMNC) per femur of a mouse was measured by the following procedure. Bone marrow was sampled from 2 femora of a mouse, the marrow was flushed with 2 ml of physiological saline, and made the bone marrow cell suspension. Twenty μl of bone marrow cell suspension was put into […] of 3% acetic acid solution. After the red blood cells were destroyed, the hemocytometer was used for counting the BMNC count under the microscope. Then the BMNC count per femur was calculated.
The above-mentioned BMNC, WBC, RBC, Plt counts and Hb value are used as an evaluation index for bone marrow suppression caused by cyclophosphamide.

For series [4], the system named is male C57BL/6 mice. In words: Reducing effect of batroxobin on bone marrow suppression caused by cisplatin. The conditions noted are these: DDP 0.8 mg/kg i.p. (+ batroxobin 30 BU/kg i.p.) once every other day; after 17th administration (33rd day).
Excerpt: as §1
The anticancer drug, cisplatin (hereinafter referred to as DDP) was used, which is manufactured by Yunnan Gejiu Biochemical Pharmaceutical Co., Ltd.
The laboratory animals, male C57BL/6 Mice (weight: 20-22 g) were divided into 3 groups: control group, cisplatin group (DDP group), and cisplatin+batroxobin group (DDP+DF-521 group); with 10 mice in one group. The control group was given physiological saline once every other day. The cisplatin group was given an intraperitoneal dose of 0.8 mg/kg of cisplatin once every other day. The cisplatin+batroxobin group was given an intraperitoneal dose of 0.8 mg/kg of cisplatin and 30 BU/kg of batroxobin simultaneously, once every other day. After the 17th administration (33rd day after the first administration), the experiment was terminated, blood was collected from the femoral artery under ether anesthesia using the anticoagulant EDTA, and the WBC, RBC, Plt counts and Hb value, were measured.
Furthermore the bone marrow nuclear cell (BMNC) count per femur of a mouse was measured by the following procedure. Bone marrow was sampled from 2 femora of a mouse, the bone marrow was flushed with the 2 ml physiological saline, and made bone marrow cell suspension. Twenty μl of marrow cell suspension was put into 380 μl of 3% acetic acid solution. After the red blood cells were destroyed, the hemocytometer was used for counting the BMNC count under the microscope. Then, the BMNC count per femur was calculated.
The above-mentioned BMNC, WBC, RBC, Plt counts and Hb value were used as an evaluation index for bone marrow suppression caused by cisplatin.

Another series concerns Rat (Wistar). The series is described as follows: Acute toxicity of batroxobin (i.v.), rat. The procedure: (§2) The thrombin-like enzyme, batroxobin is used in the present agent. The acute toxicity (LD50 (BU/kg)) of batroxobin on mice, rats, rabbits and dogs is as follows in Table 1. The acute toxicity test was assessed by the intravenous administration of batroxobin.
For a further series, the system named is Rabbit (NW). The series is described as follows: Acute toxicity of batroxobin (i.v.), rabbit. On the procedure: as §2
Another series relates to Dog (mongrel). The series is described as follows: Acute toxicity of batroxobin (i.v.), dog. The procedure:
as §2

The subject of a further series is Mouse (ddy). The series is described as follows: Acute toxicity of batroxobin (i.v.), mouse. The procedure: as §2

With `COc1cccc2c1C(=O)c1c(O)c3c(c(O)c1C2=O)C[C@@](O)(C(=O)CO)C[C@@H]3O[C@H]1C[C@H](N)[C@H](O)[C@H](C)O1` [ADM, adriamycin], the “Pathological findings in left ventricular myocardial tissue (H&E) compared to control group” value in series [1] is given as “abnormalities were observed”. In the series on C57BL/6 Mice, the BMNC was 6.9 ± 1.6 ×10^6/bone, the Hb stood at 94.9 ± 30.5 g/L, the RBC is 6.6 ± 1.5 ×10^12/L and the WBC is listed as 3.4 ± 0.7 ×10^9/L. Also, in the series with male C57BL/6 mice [2], the “Survival No/Total No” value is on record as 4/10* and the survival rate % entry is listed as “(40%)”.
As for `O=P1(N(CCCl)CCCl)NCCCO1` (stereo not shown) [CPA, cyclophosphamide], in the series on male C57BL/6 mice [3], the BMNC is 2.4 ± 0.4 ×10^6/bone, the Hb is on record as 98.8 ± 9.2 g/L, the Plt is on record as 1081.6 ± 47.4 ×10^9/L and the RBC was 6.2 ± 0.5 ×10^12/L. Moreover, in the series on male C57BL/6 mice [3], the WBC was 0.8 ± 0.3 ×10^9/L.
Take `N.N.[Cl][Pt][Cl]` [DDP, cisplatin]: in the series on male C57BL/6 mice [4], the BMNC was 11.3 ± 2.6 ×10^6/bone, the Hb was 121.6 ± 10.7 g/L, the Plt is recorded as 1059.2 ± 241.5 ×10^9/L and the RBC was 7.4 ± 0.8 ×10^12/L. Further, the WBC in the series on male C57BL/6 mice [4] is recorded as 6.1 ± 2.2 ×10^9/L.
Turning to batroxobin, the “LD50 Value” was 105~110 BU/kg in the series on Rat (Wistar), more than 300 BU/kg in the series on Rabbit (NW), 190~208 BU/kg in the series on Dog (mongrel) and 192~210 BU/kg in the series on Mouse (ddy). Moreover, in [1], the “Pathological findings in left ventricular myocardial tissue (H&E) compared to control group” value is “abnormalities were not observed”.
